The target in experiment [1] is T1, R190/N192 FPR (Homo sapiens, UniProt P21462). It counts as cell-based.
The target in experiment [2] is T2, W190/N192 FPR (Homo sapiens, UniProt P21462, R190W). It counts as cell-based.
Experiment [3] addresses T1, R190/N192 FPR. As to the kind of experiment: biochemical. It counts as biochemical.
For experiment [4], the target named is T2, W190/N192 FPR. As to the kind of experiment: biochemical. It counts as biochemical.
Experiment [5] addresses T2, W190/N192 FPR. It counts as cell-based. The source holds these as a separate data set.
For experiment [6], the target named is T3, R190/K192 FPR (Homo sapiens, UniProt P21462, N192K). It counts as cell-based.
The target in experiment [7] is T3, R190/K192 FPR. As to the kind of experiment: biochemical. It counts as binding.
Experiment [8] has as its target T3, R190/K192 FPR. It counts as cell-based. The source holds these as a separate data set.
For experiment [9], the target named is T3, R190/K192 FPR. As to the kind of experiment: biochemical. It counts as biochemical.
For experiment [10], the target named is T1, R190/N192 FPR. It counts as cell-based. This is another data set of the same source.
The target of experiment [11] is T1, R190/N192 FPR. As to the kind of experiment: biochemical. It counts as binding.
Experiment [12] concerns the target T2, W190/N192 FPR. As to the kind of experiment: biochemical. It counts as binding. The following applies: for Ki: Ki (nM ± SEM) for binding of peptides to W190/N192 FPR.
The target in experiment [13] is Coronavirus 229E spike 36mer (Human coronavirus 229E). As to the kind of experiment: flow.
Experiment [14] deals with SARS coronavirus spike 12mer (SARS coronavirus). The experiment in a line: flow.
In experiment [15] the target is HIV-2 envelope 37mer (Human immunodeficiency virus 2). The experiment in a line: flow.
The next experiment addresses reverse 229E peptide. The experiment in a line: flow.
The target in experiment [16] is ETYIK-(Alexa Fluor)WPWWVWL (Human coronavirus 229E). The experiment in a line: flow.
Experiment [17] has as its target Coronavirus 229E spike 7mer (Human coronavirus 229E). The experiment in a line: flow.
For experiment [18], the target named is Coronavirus 229E spike 12mer (Human coronavirus 229E). The experiment in a line: flow.
The target of experiment [19] is Coronavirus OC43 spike 36mer (Human coronavirus OC43). The experiment in a line: flow.
Experiment [20] has as its target HKU-1 coronavirus spike peptide (Human coronavirus HKU1). As to the kind of experiment: flow.
Experiment [21] addresses Coronavirus 229E spike N-terminal 7mer (Human coronavirus 229E). The experiment in a line: flow.
The target of experiment [22] is Coronavirus 229E spike 5mer (Human coronavirus 229E). The experiment in a line: flow.
For experiment [23], the target named is HIV-1 gp41 12mer (Human immunodeficiency virus 1). As to the kind of experiment: flow.
Another experiment concerns the target MMWLL. The experiment in a line: flow.

Non-standard residues stand in square brackets, D forms with d. Residues, ends and D or L forms follow the SMILES beside them. *: point of attachment. Nle = CCCC[C@H](N)C(=O)O; For = O=C*

By EC50 is commonly meant the concentration at which the effect is half-maximal. A high value points to a less potent agent. What is called Ki is a measure of affinity in units of concentration, obtained from inhibition or displacement. High values mean lower affinity, low ones higher affinity. As a reminder, the Kd is the constant that tells how readily two partners part at equilibrium.

As for `CC[C@H](C)[C@H](NC(=O)[C@H](Cc1ccc(O)cc1)NC(=O)[C@@H](NC(=O)[C@@H](N)CCC(=O)O)[C@@H](C)O)C(=O)N[C@@H](CCCCN)C(=O)N[C@@H](Cc1c[nH]c2ccccc12)C(=O)N1CCC[C@H]1C(=O)N[C@@H](Cc1c[nH]c2ccccc12)C(=O)N[C@@H](Cc1c[nH]c2ccccc12)C(=O)N[C@H](C(=O)N[C@@H](Cc1c[nH]c2ccccc12)C(=O)N[C@@H](CC(C)C)C(=O)O)C(C)C`, the “inhibition of arrestin translocation in response to formyl-Nle–Leu–Phe” value on R190/N192 FPR [1] was 18 ± 4%; on W190/N192 FPR [2], 77 ± 10%; against R190/K192 FPR [8], 20 ± 9%. Moreover, the β-arrestin translocation entry on R190/N192 FPR [1], on W190/N192 FPR [2] and at R190/K192 FPR [8] was “did not cause translocation” in each case. Besides, the EC50 worked out at 1600 ± 400 nM on R190/N192 FPR [3], 300 ± 120 nM on W190/N192 FPR [4] and 1600 ± 440 nM at R190/K192 FPR [9]. The “stimulation of GTPγS binding” value at R190/N192 FPR [3], on W190/N192 FPR [4] and at R190/K192 FPR [9] was “neither ETYIKWPWWVWL nor MYVKWPWYVWL had any effect” in each case. For the same molecule, the “inhibition of receptor downregulation in response to formyl-Nle–Leu–Phe” value against W190/N192 FPR [5] is 64 ± 6%; on R190/K192 FPR [6] it was 20 ± 2%; against R190/N192 FPR [10] it was 16 ± 2%. The surface receptor downregulation result at W190/N192 FPR [5], on R190/K192 FPR [6] and on R190/N192 FPR [10] was “did not cause surface receptor downregulation” in each case. Also, the values for the Ki on R190/K192 FPR [7], at R190/N192 FPR [11] and on W190/N192 FPR [12] were 370 ± 30 nM, 533 ± 30 nM and 270 ± 10 nM, respectively.
On to `CSCC[C@H](NC=O)C(=O)N[C@@H](Cc1ccc(O)cc1)C(=O)N[C@H](C(=O)N[C@@H](CCCCN)C(=O)N[C@@H](Cc1c[nH]c2ccccc12)C(=O)N1CCC[C@H]1C(=O)N[C@@H](Cc1c[nH]c2ccccc12)C(=O)N[C@@H](Cc1ccc(O)cc1)C(=O)N[C@H](C(=O)N[C@@H](Cc1c[nH]c2ccccc12)C(=O)N[C@@H](CC(C)C)C(=O)O)C(C)C)C(C)C` (For-MYVKWPWYVWL-OH), for which the “stimulation of GTPγS binding” value on R190/N192 FPR [3], on W190/N192 FPR [4] and on R190/K192 FPR [9] was “stimulated GTPγS binding” throughout. The Ki at R190/K192 FPR [7] turned out to be 134 ± 12 nM; at R190/N192 FPR [11], 134 ± 9 nM; on W190/N192 FPR [12] it was 133 ± 8 nM.
As for `CSCC[C@H](N)C(=O)N[C@@H](Cc1ccc(O)cc1)C(=O)N[C@H](C(=O)N[C@@H](CCCCN)C(=O)N[C@@H](Cc1c[nH]c2ccccc12)C(=O)N1CCC[C@H]1C(=O)N[C@@H](Cc1c[nH]c2ccccc12)C(=O)N[C@@H](Cc1ccc(O)cc1)C(=O)N[C@H](C(=O)N[C@@H](Cc1c[nH]c2ccccc12)C(=O)N[C@@H](CC(C)C)C(=O)O)C(C)C)C(C)C` (H-MYVKWPWYVWL-OH), the “inhibition of 300 nM formyl-MYVKWPWYVWL stimulation of GTPγS binding” value at R190/N192 FPR [3] was “did not have a significant effect”; on W190/N192 FPR [4], 60%; at R190/K192 FPR [9], “did not have a significant effect”. In addition, the “stimulation of GTPγS binding” value on R190/N192 FPR [3], at W190/N192 FPR [4] and at R190/K192 FPR [9] was “neither ETYIKWPWWVWL nor MYVKWPWYVWL had any effect” throughout. The Ki at R190/K192 FPR [7] was determined as 837 ± 32 nM; at R190/N192 FPR [11], 783 ± 50 nM; at W190/N192 FPR [12] it was 263 ± 9 nM. The “fold enhancement of affinity on formylation” value on R190/K192 FPR [7] was 6 fold; at R190/N192 FPR [11], 6 fold; at W190/N192 FPR [12], 2 fold. Also, on W190/N192 FPR [12], the “fold higher affinity for W190/N192 than for R190/N192 or R190/K192” value is given as 3 fold.
For `CCCC[C@H](NC=O)C(=O)N[C@@H](CC(C)C)C(=O)N[C@@H](Cc1ccccc1)C(=O)O` [Formyl-NleLeuPhe, Formyl-Nle–Leu–Phe, reference compound] (For-[Nle]-Leu-Phe-OH), the β-arrestin translocation entry at R190/N192 FPR [1], on W190/N192 FPR [2] and at R190/K192 FPR [8] was “caused β-arrestin translocation” throughout. Also, the “stimulation of GTPγS binding” value at R190/N192 FPR [3], on W190/N192 FPR [4] and at R190/K192 FPR [9] was “stimulated GTPγS binding” in each case. Also, the surface receptor downregulation on W190/N192 FPR [5] was 76 ± 3%; at R190/K192 FPR [6], 85 ± 0.4%; on R190/N192 FPR [10] it was 76 ± 1.2%. Moreover, the “fold higher affinity for R190/K192 than for W190/N192” value on R190/K192 FPR [7] was about 3 fold. Moreover, the “fold reduction of affinity on substitution of R190 with W190” value on W190/N192 FPR [12] came to 2.5 fold.

B1: Formyl peptide receptor (FPR R190/N192), P21462 (protein)
chain: METNSSLPTNISGGTPAVSAGYLFLDIITYLVFAVTFVLGVLGNGLVIWVAGFRMTHTVTTISYLNLAVADFCFTSTLPFFMVRKAMGGHWPFGWFLCKFVFTIVDINLFGSVFLIALIALDRCVCVLHPVWTQNHRTVSLAKKVIIGPWVMALLLTLPVIIRVTTVPGKTGTVACTFNFSPWTNDPKERINVAVAMLTVRGIIRFIIGFSAPMSIVAVSYGLIATKIHKQGLIKSSRPLRVLSFVAAAFFLCWSPYQVVALIATVRIRELLQGMYKEIGIAVDVTSALAFFNSCLNPMLYVFMGQDFRERLIHALPASLERALTEDSTQTSDTATNSTLPSAEVELQAK
Turning to B1, the inhibitory constant (Ki) in experiment [13] is 10000 nM; in [14], 2050 nM; in experiment [15] it was 15700 nM; in the experiment with reverse 229E peptide it was over 50000 nM; in [17], 600 nM; in experiment [18], 533 nM. In addition, the Ki in experiment [19] is 850 nM; in experiment [20], 783 nM; in [21], over 260000 nM; in [22], 1000 nM; in experiment [23], 1200 nM; with MMWLL, 330 nM. The same molecule returned a Kd in experiment [16] of 121 nM.

B2: Formyl peptide receptor (FPR R190/K192), P21462 (protein)
chain: METNSSLPTNISGGTPAVSAGYLFLDIITYLVFAVTFVLGVLGNGLVIWVAGFRMTHTVTTISYLNLAVADFCFTSTLPFFMVRKAMGGHWPFGWFLCKFVFTIVDINLFGSVFLIALIALDRCVCVLHPVWTQNHRTVSLAKKVIIGPWVMALLLTLPVIIRVTTVPGKTGTVACTFNFSPWTNDPKERIKVAVAMLTVRGIIRFIIGFSAPMSIVAVSYGLIATKIHKQGLIKSSRPLRVLSFVAAAFFLCWSPYQVVALIATVRIRELLQGMYKEIGIAVDVTSALAFFNSCLNPMLYVFMGQDFRERLIHALPASLERALTEDSTQTSDTATNSTLPSAEVELQAK
As for B2, the inhibition constant Ki with reverse 229E peptide is over 50000 nM; with MMWLL, 190 nM.

B3: Formyl peptide receptor (FPR W190/N192), P21462 (protein)
chain: METNSSLPTNISGGTPAVSAGYLFLDIITYLVFAVTFVLGVLGNGLVIWVAGFRMTHTVTTISYLNLAVADFCFTSTLPFFMVRKAMGGHWPFGWFLCKFVFTIVDINLFGSVFLIALIALDRCVCVLHPVWTQNHRTVSLAKKVIIGPWVMALLLTLPVIIRVTTVPGKTGTVACTFNFSPWTNDPKEWINVAVAMLTVRGIIRFIIGFSAPMSIVAVSYGLIATKIHKQGLIKSSRPLRVLSFVAAAFFLCWSPYQVVALIATVRIRELLQGMYKEIGIAVDVTSALAFFNSCLNPMLYVFMGQDFRERLIHALPASLERALTEDSTQTSDTATNSTLPSAEVELQAK
With B3, the Ki is over 50000 nM with reverse 229E peptide and 840 nM in the experiment with MMWLL.
